The record followed here is patent publication US8642256B2, “Kinase and ubiquination assays” (Life Technologies Corporation, priority 2005, dated 2014).

Data set [1] has as its system RAW 264.7 cells. Nature of the data set: Assay of kinase from cell lysate (GFP-cJun phosphorylation, TR-FRET). Format: cell-based, mouse. The following applies: duplicates. On the procedure: RAW 264.7 cells (mouse macrophage cell line) were serum starved overnight and stimulated (or not) with 10 ug/ml of Anisomycin for 15 minutes prior to lysates being prepared. Lysates were prepared following a standard protocol, e.g., as described in the Kinase Activity Assay Kit protocol, Rev. A1 Dec. 9, 2005, Catalog#KNZ0031, BioSource (California). The protocol is outlined below.
When using the Omnia™ Lysate Assay to determine MAPKAP-K2 activity in cell lysates, the following procedure for sample preparation may be used. This protocol has been successfully applied to several cell lines of human and mouse origin. • 1. Thaw Omnia Cell Extraction Buffer (BioSource, California) on ice. • 2. Set up and stimulate cells as desired. • 3. Collect cells in cold PBS by centrifugation (for non-adherent cells) or scraping from culture plates (for adherent cells). • 4. Centrifuge the cells at 1,500 rpm for 5 minutes at 4° C. • 5. Aspirate the PBS. • 6. Resuspend the cell pellet in Omnia Cell Extraction Buffer and transfer the lysate to a 1.5 mL microcentrifuge tube. The volume of Omnia Cell Extraction Buffer depends on the cell number and expression level of MAPKAP-K2. The optimal protein concentration of lysate should be in the range of 5 to 10 mg/mL. Add an appropriate amount of protease and phosphatase inhibitor (typically provided as a 100× stock solution) before using. Under these conditions, using 0.005 mL (25-50 μg) of the clarified cell extract will be sufficient for measurement of MAPKAP-K2 activity. • 7. Lyse the cells at 4° C. for 30 minutes on a rotator. Whole cell extract can then be briefly sonicated or put through a syringe and needle if desired. • 8. Centrifuge at 13,000 rpm for 20-30 minutes at 4° C. • 9. Transfer the clarified cell extracts to clean microcentrifuge tubes. • 10. The clarified cell extract should be stored at −80° C. until ready for analysis. Avoid repeated freeze-thaw cycles. In preparation for performing the assay, allow the samples to thaw on ice. Mix well prior to analysis.
Lysate was serially diluted in buffer and 5 uL aliquots were assayed against 400 nM GFP-cJun in assay buffer containing 100 uM ATP. Assays were stopped by addition of EDTA and antibody, with a final anti-phospho cJun antibody concentration of 2 nM. The plate was read after 1 hour incubation and the data collected. Samples were performed in duplicates.
For orientation: TR-FRET usually uses a lanthanide donor and a delayed reading to cut background.

Data set [2] concerns the target T1, Epidermal Growth Factor Receptor (EGFR) Tyrosine Kinase (Homo sapiens, UniProt P00533).
T1 construct: purchased Invitrogen P2628
The data set is described as follows: EGFR kinase multiplex FP/TR-RET assay (LOPAC screen and follow-up). The following applies: re-assayed, two-fold dilutions. Format: biochemical.

Data set [3] is described as follows: Precipitation of compounds seen in the EGFR kinase assay. Format: physicochemical. The following applies: EGFR kinase assay conditions.
Data set [4] has as its target T2, UCH-L3 (Homo sapiens, UniProt P15374).
T2 construct: purchased Boston Biochem E-325
T2 sequence (P15374 1-230): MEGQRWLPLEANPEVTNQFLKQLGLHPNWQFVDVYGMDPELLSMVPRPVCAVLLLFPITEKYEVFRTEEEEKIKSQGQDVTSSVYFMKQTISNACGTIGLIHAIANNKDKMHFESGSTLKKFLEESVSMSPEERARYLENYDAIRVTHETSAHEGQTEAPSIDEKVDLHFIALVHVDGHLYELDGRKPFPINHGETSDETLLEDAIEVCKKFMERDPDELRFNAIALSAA
The data set is described as follows: Deubiquitination TR-FRET assay with GFP-Ub-Tb, inhibitor titration. Format: biochemical. Particulars: 0.1 nM UCH-L3 and 10 nM GFP-Ub-Tb.

Values joined by “and” are separate entries in the source; they are usually repeats but may differ in a detail not shown here. Equal entries are not always repeated.

T1 sequence (P00533 25-1210): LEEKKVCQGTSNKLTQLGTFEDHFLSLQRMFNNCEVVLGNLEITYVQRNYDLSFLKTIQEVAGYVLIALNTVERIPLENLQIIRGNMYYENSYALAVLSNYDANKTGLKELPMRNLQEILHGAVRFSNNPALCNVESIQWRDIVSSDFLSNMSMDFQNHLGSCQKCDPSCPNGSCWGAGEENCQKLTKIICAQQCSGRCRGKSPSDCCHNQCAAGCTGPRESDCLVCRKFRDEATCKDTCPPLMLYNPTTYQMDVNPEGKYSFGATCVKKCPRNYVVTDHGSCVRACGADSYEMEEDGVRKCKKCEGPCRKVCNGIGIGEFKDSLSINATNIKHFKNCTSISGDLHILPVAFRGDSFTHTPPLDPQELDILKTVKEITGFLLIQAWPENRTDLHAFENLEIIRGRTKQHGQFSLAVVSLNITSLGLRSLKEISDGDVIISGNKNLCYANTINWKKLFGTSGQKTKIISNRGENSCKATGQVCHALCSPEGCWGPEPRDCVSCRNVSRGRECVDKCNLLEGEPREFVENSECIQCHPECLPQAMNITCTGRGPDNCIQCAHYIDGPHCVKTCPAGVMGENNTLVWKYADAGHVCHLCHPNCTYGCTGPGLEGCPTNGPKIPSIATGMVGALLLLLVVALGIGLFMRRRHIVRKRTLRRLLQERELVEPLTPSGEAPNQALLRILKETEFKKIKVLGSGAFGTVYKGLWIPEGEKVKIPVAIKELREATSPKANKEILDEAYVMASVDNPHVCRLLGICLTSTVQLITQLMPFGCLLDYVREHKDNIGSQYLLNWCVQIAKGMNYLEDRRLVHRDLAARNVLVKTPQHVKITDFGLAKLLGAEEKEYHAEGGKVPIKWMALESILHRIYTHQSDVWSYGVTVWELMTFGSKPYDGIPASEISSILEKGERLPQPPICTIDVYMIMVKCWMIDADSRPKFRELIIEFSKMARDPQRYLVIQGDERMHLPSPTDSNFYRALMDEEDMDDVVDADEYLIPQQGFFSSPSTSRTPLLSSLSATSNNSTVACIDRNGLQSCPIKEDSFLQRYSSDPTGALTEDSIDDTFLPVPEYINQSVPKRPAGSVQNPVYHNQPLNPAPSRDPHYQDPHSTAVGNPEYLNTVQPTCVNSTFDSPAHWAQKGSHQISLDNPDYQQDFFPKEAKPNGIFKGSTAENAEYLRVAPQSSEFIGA

For the molecule `COc1ccc(C[C@H]2NC[C@H](O)[C@H]2OC(C)=O)cc1` [Anisomycin], the “TR-FRET value of lysate, +Anisomycin” value is 0.1308 and 0.1312 in data set [1] (10 ug/ml Anisomycin 15 minutes, 0.003051758 % Cell Lysate in 5 uL Addition); 0.1395 and 0.1339 in data set [1] (10 ug/ml Anisomycin 15 minutes, 0.006103516 % Cell Lysate in 5 uL Addition); 0.1419 and 0.1424 in data set [1] (10 ug/ml Anisomycin 15 minutes, 0.01220703 % Cell Lysate in 5 uL Addition); 0.1479 and 0.1534 in data set [1] (10 ug/ml Anisomycin 15 minutes, 0.02441406 % Cell Lysate in 5 uL Addition); 0.1572 and 0.1894 in data set [1] (10 ug/ml Anisomycin 15 minutes, 0.04882813 % Cell Lysate in 5 uL Addition); 0.2161 and 0.2286 in data set [1] (10 ug/ml Anisomycin 15 minutes, 0.09765625 % Cell Lysate in 5 uL Addition). For the same molecule, the “TR-FRET value of lysate, +Anisomycin” value was 0.2474 and 0.3145 in data set [1] (10 ug/ml Anisomycin 15 minutes, 0.1953125 % Cell Lysate in 5 uL Addition); 0.2813 and 0.3421 in data set [1] (10 ug/ml Anisomycin 15 minutes, 0.390625 % Cell Lysate in 5 uL Addition); 0.3722 and 0.4739 in data set [1] (10 ug/ml Anisomycin 15 minutes, 0.78125 % Cell Lysate in 5 uL Addition); 0.4554 and 0.5687 in data set [1] (10 ug/ml Anisomycin 15 minutes, 1.5625 % Cell Lysate in 5 uL Addition); 0.5703 and 0.707 in data set [1] (10 ug/ml Anisomycin 15 minutes, 3.125 % Cell Lysate in 5 uL Addition); 0.5917 and 0.7878 in data set [1] (10 ug/ml Anisomycin 15 minutes, 6.25 % Cell Lysate in 5 uL Addition). Also, the “TR-FRET value of lysate, +Anisomycin” value is 0.7483 and 0.8384 in data set [1] (10 ug/ml Anisomycin 15 minutes, 12.5 % Cell Lysate in 5 uL Addition); 0.8474 and 0.8571 in data set [1] (10 ug/ml Anisomycin 15 minutes, 25 % Cell Lysate in 5 uL Addition); 0.9027 and 0.9226 in data set [1] (10 ug/ml Anisomycin 15 minutes, 50 % Cell Lysate in 5 uL Addition); 0.9796 and 0.9768 in data set [1] (cells stimulated with 10 ug/ml Anisomycin 15 minutes, 100 % Cell Lysate in 5 uL Addition).
With `NC(=O)c1cc(N2CC2)c([N+](=O)[O-])cc1[N+](=O)[O-]` [CB-1954], the inhibitor on re-assay result in data set [2] is recorded as “neither was seen to be an inhibitor”.
For the molecule `CC(C)[C@@]1(NC(=O)[C@@H]2C=C3c4cccc5[nH]cc(c45)C[C@H]3N(C)C2)O[C@@]2(O)[C@@H]3CCCN3C(=O)[C@H](Cc3ccccc3)N2C1=O` [Ergocristine], in data set [3], the “precipitation in the assay” value is reported as “seen to precipitate”.
For the molecule `O=C1Nc2ccc(I)cc2/C1=C/c1cc(Br)c(O)c(Br)c1` [GW5074], the “precipitation in the assay” value in data set [3] is “seen to precipitate”.
As to `Oc1ccccc1O` [Pyrocatechol], in data set [2], the inhibitor on re-assay entry is listed as “neither was seen to be an inhibitor”.
As for ubiquitin aldehyde, the IC50 (commonly the concentration needed to halve the response being measured) in data set [4] turned out to be 200 pM.
